“And” between values parts separate entries of the source, which are not always exact repeats. Equal values may be shown once. Read-outs that look alike come from different tables or passages of the source.
Tests used:
EB-DNA adduct (CT DNA) = assay: EB-displacement from EB-DNA (fluorescence); format: binding, calf; conditions: for ΔΙ/Ι0 (%) EB-DNA fluorescence quenching: [EB] = 20 μM, [DNA] = 26 μM; for kq (EB-DNA quenching constant): τo = 23 ns; for EB-DNA relative fluorescence emission intensity, % of the initial: λemission = 592 nm, final value
Description: page 8: […] spectroscopy, viscosity measurements and fluorescence emission spectroscopy studies. […] UV-vis spectroscopy was used for the evaluation of the interaction of the compounds with CT DNA, and specifically the possible binding modes of the compounds to CT DNA. Control experiments with DMSO were performed and no changes in the spectra of CT DNA were observed. In order to determine the binding mode, the UV-vis spectra of the compounds were […] concentrations of CT DNA for diverse r (r = [complex]/[DNA]) values. Effective use of the changes […] compounds were calculated by the Wolfe-[…] equation (eq. […] εf) versus [DNA]: (eq. S1) where [DNA] = the concentration of DNA in base pairs, ε f= the extinction coefficient for the free compound at the corresponding λmax, εA = Aobsd/[compound] and εb= the extinction coefficient for the compound in the fully bound form. K b is given by the ratio of slope to the y intercept in plots [DNA]/(εA-εf) versus [DNA]. S3.2 CT DNA-binding studies by viscosity measurements […] presence of increasing amounts of the compounds. The experiments were executed at room temperature and the measurements are devised in a plot (η/η 0)1/3 versus r, where η = the viscosity of DNA in the presence of the compound, and η0 = the viscosity of neat DNA in buffer solution. […] In order to determine and confirm the DNA-binding mode of the compounds, a competitive study with EB as an intercalating marker is performed by fluorescence emission spectroscopy. Therefore, the EB-displacing ability of the compounds from its EB-DNA conjugate was examined. […] solution (150 mM NaCl and 15 mM trisodium citrate at pH 7.0). The potential intercalation of the compounds between the DNA-bases was studied by the addition of a certain amount of the 8 (1 picture or pasted object on this page, not shown here) page 9: compound solution into the EB-DNA adduct solution. The influence of the compounds on the EB- DNA solution was monitored through the changes of the fluorescence emission spectra at excitation wavelength (λex) at 540 nm [S6]. […] Bearing that in mind, the observed quenching of the EB-DNA solution is evidently associated to the displacement of EB from its EB-DNA adduct. The quenching efficiency (KSV) for each compound was assessed according to the Stern - Volmer equation (eq. S2) [S6]: (eq. S2) where I0 and I = the fluorescence emission intensities of EB-DNA in the absence and presence of the quencher, respectively, [Q] = the concentration of the quencher (i.e. compounds). K SV is obtained from the Stern-Volmer plots by the slope of the diagram I0/I versus [Q]. Taking τ0 = 23 ns […] M-1s-1) of the compounds can be determined according to e quation S3: KSV = kqτo (eq. S3) 9 (1 picture or pasted object on this page, not shown here)

[1] = tested on: Escherichia coli NCTC 29212; assay: MIC determination; format: cell-based; conditions: for MIC: read-out: MIC E. coli
Description: (§1) S2 Antibacterial activity
(§2) The antimicrobial activity of the compounds was evaluated by determining their respective MIC values towards two Gram–(–) (Escherichia coli NCTC 29212 (E. coli) and Xanthomonas campestris ATCC 1395 (X. campestris)) and two Gram–(+) (Staphylococcus aureus ATCC 6538 (S. aureus) and Bacillus subtilis ATCC 6633 (B. subtilis)) bacterial species. Cultures of these microbial strains were grown on a rich selective agar medium and stored at 4°C. The selective media used were Nutrient Agar or Broth for B. subtilis and S. aureus, Yeast Mold Agar or Broth for X. campestris and Luria Agar or Broth for E. coli. Cells picked from the surface of the stored cultures were used to initiate liquid pre–cultures of the same selective medium at an initial turbidity of roughly 1 McFarland unit. Pre–cultures were incubated for 24 h in a rotary shaking incubator and subsequently they were used to inoculate the test cultures used for the determination of MIC at an initial turbidity of 0.5 McFarland units. The test cultures consisted of Mueller –Hinton broth (Deben Diagnostics Ltd) containing different concentrations of the compounds.
(§3) Different concentrations were achieved as follows: the compounds were freshly dissolved in DMSO to a concentration of 1 mg mL–1 and they were diluted with DMSO, using the method of progressive double dilution. Therefore, working solutions with decreasing concentrations of the compounds under investigation were achieved. The working solutions were subsequently diluted to the final desired concentration by addition to the growth medium at a proportion of 2:98. MIC values were determined as the lowest concentrations of the tested compounds that inhibited visible growth of each respective organism after a 24 h incubation [ S3]. Bacterial growth was determined by measuring the turbidity of appropriately diluted cultures at 600 nm with reference to equally diluted sterile growth medium and the inhibition achieved was calculated by comparing the turbidity of each culture to the average of the turbidity of three non–inhibited cultures. All test cultures were grown in triplicates and for the determination of MIC, growth had to be inhibited in at least two cultures of the triplicate. Incubation temperature at all stages was 37°C except for X. campestris that was cultivated at 28°C [S4].

[2] = tested on: Staphylococcus aureus ATCC 6538; assay: MIC determination; format: cell-based; conditions: for MIC: read-out: MIC S. aureus
Description: as §1, §2, §3

[3] = tested on: Bacillus subtilis ATCC 6633; assay: MIC determination; format: cell-based; conditions: for MIC: read-out: MIC B. subtilis
Description: as §1, §2, §3

[4] = tested on: Xanthomonas campestris ATCC 1395; assay: MIC determination; format: cell-based; conditions: for MIC: Xanthomonas campestris, ATCC1395, 24 h, read-out: MIC X. campestris; for MIC X. campestris: 24 h
Description: as §1, §2, §3

[5] = Escherichia coli, NCTC29212, 24 h
[6] = Staphylococcus aureus, ATCC6538, 24 h
[7] = Bacillus subtilis, ATCC6633, 24 h

| SMILES | KSV (Stern–Volmer constant), EB-DNA (EB-DNA adduct (CT DNA)) | ΔΙ/Ι0 (%) EB-DNA fluorescence quenching (EB-DNA adduct (CT DNA)) [%] | kq (EB-DNA quenching constant) (EB-DNA adduct (CT DNA)) | MIC [1, 5] | MIC [2, 6] | MIC [3, 7] | MIC [4] | EB-DNA relative fluorescence emission intensity, % of the initial (EB-DNA adduct (CT DNA)) [%] | MIC E. coli ([1]; 24 h) [µg/mL] | MIC ([1]; 24 h, value in parentheses) [µM] | MIC S. aureus ([2]; 24 h) [µg/mL] | MIC ([2]; 24 h, value in parentheses) [µM] | MIC B. subtilis ([3]; 24 h) [µg/mL] | MIC ([3]; 24 h, value in parentheses) [µM] | MIC X. campestris [4] [µg/mL] | MIC X. campestris ([4]; value in parentheses) [µM] |
| --- | --- | --- | --- | --- | --- | --- | --- | --- | --- | --- | --- | --- | --- | --- | --- | --- |
| CCN(CC)c1ccc(C=O)c(O)c1 [4-Et2N-saloH, 4-diethylamino-salicylaldehyde, reference compound] | 2.89 (±0.07) × 10^4 M^−1 | 43.4 | 1.25 (±0.03) × 10^12 M^−1s^−1 | > 200 µg/mL and > 1040 µM | > 200 µg/mL and > 1040 µM | > 200 µg/mL and > 1040 µM | > 200 µg/mL and > 1040 µM | – | – | – | – | – | – | – | – | – |
| COc1ccc(C=O)c(O)c1 [4-OMe-saloH, 4-methoxy-salicylaldehyde, reference compound] | – | – | – | > 200 µg/mL and > 1310 µM | > 200 µg/mL and > 1310 µM | > 200 µg/mL and > 1310 µM | > 200 µg/mL and > 1310 µM | – | – | – | – | – | – | – | – | – |
| O=Cc1cc(F)ccc1O [5-F-saloH, 5-fluoro-salicylaldehyde, reference compound] | 3.79 (±0.11) × 10^4 M^−1 | 51.3 | 1.73 (±0.05) × 10^12 M^−1s^−1 | 200 µg/mL and 1430 µM | 200 µg/mL and 1430 µM | 200 µg/mL and 1430 µM | 200 µg/mL and 1430 µM | – | – | – | – | – | – | – | – | – |
| CCN(CC)c1ccc(C=O)c([O][Pd][O]c2cc(N(CC)CC)ccc2C=O)c1 [Complex 1, [Pd(4-Et2N-salo)2]] | 1.03 (±0.02) × 10^5 M^−1 | 51.2 | 4.49 (±0.09) × 10^12 M^−1s^−1 | – | – | – | – | 48.8 | 100 | 204 | 100 | 204 | 100 | 204 | 200 | 407 |
| O=Cc1cc(Br)cc(Br)c1[O][Pd][O]c1c(Br)cc(Br)cc1C=O [Complex 2, [Pd(3,5-diBr-salo)2]] | 1.00 (±0.02) × 10^5 M^−1 | 64.8 | 4.35 (±0.10) × 10^12 M^−1s^−1 | – | – | – | – | 35.2 | 25 | 38 | 25 | 38 | 25 | 38 | 25 | 38 |
| O=Cc1cc(Cl)cc(Cl)c1[O-].O=Cc1cc(Cl)cc(Cl)c1[O-].[Pd+2] [Complex 3, [Pd(3,5-diCl-salo)2]] | 7.53 (±0.18) × 10^4 M^−1 | 60.6 | 3.27 (±0.08) × 10^12 M^−1s^−1 | – | – | – | – | 39.4 | 25 | 51 | 25 | 51 | 50 | 103 | 25 | 51 |
| O=Cc1cc(F)ccc1[O-].O=Cc1cc(F)ccc1[O-].[Pd+2] [Complex 4, [Pd(5-F-salo)2]] | 5.71 (±0.10) × 10^4 M^−1 | 51.4 | 2.48 (±0.04) × 10^12 M^−1s^−1 | – | – | – | – | 48.6 | 100 | 259 | 100 | 259 | 100 | 259 | 100 | 259 |
| COc1ccc(C=O)c([O-])c1.COc1ccc(C=O)c([O-])c1.[Pd+2] [Complex 5, [Pd(4-OMe-salo)2]] | 4.26 (±0.08) × 10^4 M^−1 | 44.2 | 1.85 (±0.04) × 10^12 M^−1s^−1 | – | – | – | – | 55.8 | 100 | 245 | 100 | 245 | 100 | 245 | 100 | 245 |

Source: PMC9323974, “Palladium(II) Complexes of Substituted Salicylaldehydes: Synthesis, Characterization and Investigation of Their Biological Profile” (Pharmaceuticals, 2022)
